The target in one data set is T1, STAT6 (Homo sapiens, UniProt P42226).
T1 sequence (P42226 1-847): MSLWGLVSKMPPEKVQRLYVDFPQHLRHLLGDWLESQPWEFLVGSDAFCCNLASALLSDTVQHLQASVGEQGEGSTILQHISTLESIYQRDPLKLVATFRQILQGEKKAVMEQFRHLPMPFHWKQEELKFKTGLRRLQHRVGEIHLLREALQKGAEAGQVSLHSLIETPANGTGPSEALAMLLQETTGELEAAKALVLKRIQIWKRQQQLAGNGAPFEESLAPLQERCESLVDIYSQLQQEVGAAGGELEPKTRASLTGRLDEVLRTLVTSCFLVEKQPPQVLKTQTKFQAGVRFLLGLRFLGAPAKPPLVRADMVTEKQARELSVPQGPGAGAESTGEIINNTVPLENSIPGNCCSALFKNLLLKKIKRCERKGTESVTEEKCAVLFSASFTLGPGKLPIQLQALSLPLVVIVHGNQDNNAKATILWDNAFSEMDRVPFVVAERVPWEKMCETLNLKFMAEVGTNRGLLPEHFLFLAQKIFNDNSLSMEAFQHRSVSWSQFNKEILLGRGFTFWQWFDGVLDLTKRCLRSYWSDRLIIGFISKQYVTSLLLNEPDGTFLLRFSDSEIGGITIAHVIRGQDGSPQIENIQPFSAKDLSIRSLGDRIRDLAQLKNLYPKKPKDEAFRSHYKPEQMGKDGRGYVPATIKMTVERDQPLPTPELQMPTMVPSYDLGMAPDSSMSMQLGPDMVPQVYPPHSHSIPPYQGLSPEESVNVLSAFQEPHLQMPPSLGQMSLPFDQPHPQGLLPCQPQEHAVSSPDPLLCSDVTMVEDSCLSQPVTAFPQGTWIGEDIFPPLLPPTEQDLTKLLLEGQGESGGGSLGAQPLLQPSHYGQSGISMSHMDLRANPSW
Kind of data set: Fluorescence polarization (FP) binding assay, STAT6. The method, then: (§1) Ki values were calculated from IC50 values using the published equation.[2] […]
(§2) Table S2: Activities of 12 against STAT5 proteins in FP assays.
(§3) Fluorescence polarization assays
(§4) Fluorescence polarization assays were essentially carried out as previously described.[1] These assays quantitate to which extent a test compound is able to interfere with binding between a STAT protein and a fluorescein-labeled phosphotyrosine-containing peptide, which is known to bind to the SH2 domain of the respective STAT protein. The following protein […]
(§5) concentrations were used: 100 nM for STAT1, 150 nM for STAT3, 30 nM for STAT4, 180 nM for STAT5a, 90 nM for STAT5b and 105 nM for STAT6. All peptides were used at a concentration of 10 nM. The following peptides were used: 5 -carboxyfluorescein -GpYDKPHVL for STAT1; 5-carboxyfluorescein -GpYLPQTV-NH2 for STAT3; 5-carboxyfluorescein-GpYLPQNID-OH for STAT4; 5-carboxyfluorescein-GpYLVLDKW for STAT5a/b, and 5-carboxyfluorescein-GpYVPWQDLI-OH for STAT6. As a buffer system, 10 mM Tris (pH 8.0), 50 mM NaCl, 1 mM EDTA, 1 mM DTT, 0.1 % Nonidet P-40 substitute, and 2 % DMSO in water was used. All compounds tested were incubated for 1 h with the protein. Subsequently, the fluorescein-labeled peptide was added and the fluorescence polarization was measured with an Infinite F500 plate reader (Tecan) after another hour. IC50 values were converted to Ki-values using the published equation.[2] […]
(§6) 3:2 solution was added . The solution was degassed by applying ultrasonic under vacuum for one minute four times. 14 mg of Pd(PPh3)4 (12 µmol, 5 mol %) were added and the solution was refluxed overnight. After cooling down, the mixture was extracted with ethyl acetate, washed with brine and dried over Na2SO4. The crude product was purified by flash column […]
(§7) Method 2: Synthesis of dibenzylphosphate esters
(§8) The corresponding phenol (1 eq.) was dissolved in 10 ml/mmol MeCN or DMF and CCl4 (5 eq.), DIPEA (2 eq.) and DMAP (0.1 eq.) were added. After cooling down to 0°C, dibenzyl phosphite (1.5 eq.) was added dropwise and stirring was continued at the same temperature. […]
(In general: In fluorescence polarisation assays a small probe gives low polarisation when free and higher when bound to something large.)

The next data set concerns the target T2, STAT1 (Homo sapiens, UniProt P42224).
T2 sequence (P42224 1-750): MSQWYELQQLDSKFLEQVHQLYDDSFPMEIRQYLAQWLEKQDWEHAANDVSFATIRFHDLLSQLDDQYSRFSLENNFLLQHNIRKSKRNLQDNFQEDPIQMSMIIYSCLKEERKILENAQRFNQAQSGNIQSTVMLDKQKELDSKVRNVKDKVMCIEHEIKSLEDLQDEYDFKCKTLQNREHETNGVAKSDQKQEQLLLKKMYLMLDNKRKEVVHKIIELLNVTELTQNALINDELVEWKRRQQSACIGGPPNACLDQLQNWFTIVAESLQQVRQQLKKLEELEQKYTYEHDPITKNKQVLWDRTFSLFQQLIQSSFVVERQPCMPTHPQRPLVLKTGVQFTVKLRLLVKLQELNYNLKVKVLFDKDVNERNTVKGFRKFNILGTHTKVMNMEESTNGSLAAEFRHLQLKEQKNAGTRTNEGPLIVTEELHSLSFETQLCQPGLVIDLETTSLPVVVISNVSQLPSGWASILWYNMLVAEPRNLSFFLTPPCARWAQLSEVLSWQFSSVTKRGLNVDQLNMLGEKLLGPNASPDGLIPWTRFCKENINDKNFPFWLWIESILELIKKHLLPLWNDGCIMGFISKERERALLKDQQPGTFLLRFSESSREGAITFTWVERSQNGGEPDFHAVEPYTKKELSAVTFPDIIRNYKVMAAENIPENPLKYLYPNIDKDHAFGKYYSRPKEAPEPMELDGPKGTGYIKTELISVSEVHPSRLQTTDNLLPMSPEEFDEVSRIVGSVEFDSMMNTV
Description: Fluorescence polarization (FP) binding assay, STAT1. Here is the method:
as §1, §2, §3, §4, §5, §6, §7, §8

Setting [1] is: FP assay, Ki calculated from IC50 (n=3).

As to `COc1cc(-c2cc(-c3cc(F)c(F)c(F)c3)cc(C(F)P(=O)(O)O)c2)cc(OC)c1OC` (stereo not shown) [compound 12], the concentration for half-maximal inhibition (IC50) (commonly the concentration at which inhibition is half-maximal) on STAT6 (FP assay) turned out to be 144 ± 2.8 µM; on STAT1 (FP assay), 90.6 ± 0.2 µM. The Ki – broadly, the equilibrium dissociation constant of an inhibitor or competing ligand from its target – on STAT6 (setting [1]) was 71.5 ± 1.4 µM; at STAT1 (setting [1]) it was 44.6 ± 0.1 µM.
On to `COc1cc(-c2cc(OP(=O)(O)O)cc(-c3cc(F)c(F)c(F)c3)c2)cc(OC)c1OC` [6 b], for which the melting point (as a rule, the temperature of the solid-liquid transition) is more than 260 °C. Also, the inhibition (as a rule, the relative decrease from the control value, in per cent) at 200 µM on STAT6 (read-out: STAT6 inhibition at 200 μM) turned out to be 39 ± 1%. Moreover, the inhibition at 200 µM on STAT1 (read-out: STAT1 inhibition at 200 μM) was determined as 51 ± 5%.
